From patent US7645788B2, “Tetramerous derivative of indole-3-carbinol with anti-carcinogenic activity and method of synthesis of said derivative” (Universita' Degli Studi Di Urbino, priority 2001, dated 2010)

Key:
inhibitor p27 [1] = assay: Western blot, p27 in MDA-MB-234; format: cell-based, human
From the text: (§1) SDS-PAGE (Laemmli U.K. 1970, Nature 227, 680-685) and Western Blot (Towbin H., Staehelin T., Gordon J. 1979, Proc. Natl:Acad. Sci. USA 76, 4350-4354) techniques have been used to analyze the expression of proteins known as fundamental targets (markers) in the control of the cellular cycle, whose modifications often lead to an uncontrolled cell proliferation: cyclin-dependent kinase cdk6 (Cover C. M., et al, 1998, J. Biol. Chem. 273, 3838-3847), inhibitor p27 (Wang X., et al., 1997, Oncogene 15, 2991-2997; Vidal A., Koff A. 2000, Gene 247, 1-15) and retinoblastoma Rb (Dyson N. 1998, Genes & Development 12, 2245-2262; Guardavaccaro D., et al., 2000, Mol. Cell. Biol. 20 (5), 1797-1815).
(§2) After growing the cells as previously described, the cell cultures undergo the action of increasing doses of tetramerous derivative. Then culture samples are taken and the cells are lysated with B buffer (Hepes 20 mM pH 7.5, NaCl 420 mM, MgCl2 1.5 mM, EDTA 0.2 mM, glycerol 25%) in presence of antiproteolytic agents Nonidet P40 0.5% (v/v), kept under ice for 20 minutes and centrifuged at 12,000 rpm for 10 minutes at 4° C. […]
(§3) Said markers are then evaluated as previously described on estrogen-negative cell line MDA-MB-234.

[2] = test system: cyclin-dependent kinase cdk6; assay: Western blot, level of expression of cdk6 in MCF-7; format: cell-based, human; details: FIG. 6
From the text: as §1
(§4) After growing the cells as previously described, the cell cultures undergo the action of increasing doses of tetramerous derivative. Then culture samples are taken and the cells are lysated with B buffer (Hepes 20 mM pH 7.5, NaCl 420 mM, MgCl2 1.5 mM, EDTA 0.2 mM, glycerol 25%) in presence of antiproteolytic agents Nonidet P40 0.5% (v/v), kept under ice for 20 minutes and centrifuged at 12,000 rpm for 10 minutes at 4° C.
(§5) The cell lysate (supernatant liquor) is then diluted 1:1 with Sample Buffer 2× and charged into SDS-PAGE at 12% of acrylamide following Laemmli's method (Laemmli U.K. 1970, Nature 227, 680-685). […]

enzyme cdk6 = assay: Western blot, cdk6 in MDA-MB-234; format: cell-based, human
From the text: as §1, §2, §3

MCF-7 cells = assay: Cytotoxicity, vital cell count with trypan blue; format: cell-based, human
Protocol: (§6) In a second set of tests the activity of the tetramerous derivative on the two cell lines has been evaluated as cytotoxicity using a method (Magnani M. et al., 1995, Biochemical Journal no. 312, page 115-123) which allows to recognize vital from dead cells.
(§7) MCF-7 and MDA-MB-234 cells have been grown as previously described. Then, after 24 and after 72 hours of exposition to the tetramerous derivative they are taken and counted in duplicate in a hemocytometer using trypan blue dye to exclude dead cells.

MDA-MB-234 cells = assay: Cytotoxicity, vital cell count with trypan blue; format: cell-based, human; details: MDA-MB-234, FIG. 4
Protocol: as §6, §7

[3] = test system: MCF-7 cells (breast cancer cells expressing estrogen receptors); assay: Anti-proliferative effect, [3H]-thymidine incorporation into DNA; format: cell-based, human; details: line MCF-7, increasing concentrations, up to 72 hours, FIG. 1
Protocol: (§8) The activity of the tetramerous derivative has been evaluated both in breast cancer cells grown in laboratory expressing estrogen receptors (line MCF-7) and in cells which are negative for said receptors (line MDA-MB-234).
(§9) MCF-7 and MDA-MB-234 cells have been grown in laboratory in a DMEM medium added with 10% of bovine fetal serum, 1% of a penicillin-streptomycin solution, 1% of a solution of non-essential amino acids, 2 mM glutamine and for MCF-7 also with 10 ug/ml of insulin. For the tests the cells are taken and used in their logarithmic growth phase, suspending them again the same fresh medium and exposing them to the tetramerous derivative up to 72 hours at 37° C. in an atmosphere with 5% of CO2. Before the treatment the cells are grown for some hours so as to adhere well to the plastic and start proliferating. In the tests concerning the evaluation of the anti-proliferative activity the synthesis of DNA is evaluated by adding to the cultures 3 μCi/ml of [3H]-thymidine 6 hours before the end of the treatment.
(§10) The cells are exposed during the culture to increasing concentrations of tetramerous derivative, then evaluating the degree of inhibition of their proliferation by incorporating into the DNA tritium-added thymidine (Cover C. M. et al., 1998, Journal of Biological Chemistry no. 273, page 3838-3847).

[4] = test system: MDA-MB-234 cells (negative for estrogen receptors); assay: as above; format: cell-based, human; details: line MDA-MB-234, increasing concentrations, up to 72 hours, FIG. 2
Protocol: as §8, §9, §10

inhibitor p27 [5] = assay: Western blot, level of protein p27 in MCF-7; format: cell-based, human; details: MCF-7, same concentrations as for cdk6, FIG. 7
From the text: as §1, §4, §5

retinoblastoma Rb = assay: Western blot, phosphorylation of Rb factor (pRb); format: cell-based; details: Homo sapiens, FIG. 9
From the text: as §1, §4, §5

c1ccc2c3c([nH]c2c1)Cc1c([nH]c2ccccc12)Cc1c([nH]c2ccccc12)Cc1c([nH]c2ccccc12)C3 [tetramerous derivative]
level of inhibitor p27 (inhibitor p27 [1]): increase
level of expression of cdk6 ([2]; MCF-7, 15 μM): great reduction
level of expression of cdk6 ([2]; MCF-7, 50 μM): sudden decrease
level of enzyme cdk6 (enzyme cdk6): reduction
toxicity (percentage of vital cells) in relation to time of administration (MCF-7 cells; MCF-7, 24 and 72 hours, FIG. 5): time-dependent
toxicity (percentage of vital cells) in relation to amount administered (MCF-7 cells; MCF-7, FIG. 3): dose-dependent
toxicity (percentage of vital cells) in relation to amount administered (MDA-MB-234 cells): dose-dependent
inhibition of cell proliferation [3]: inhibits in a dose-dependent way
inhibition of cell proliferation [4]: inhibits in a dose-dependent way
level of protein p27 (inhibitor p27 [5]): increases
inhibition at 30 µM (retinoblastoma Rb): 60%
